Measurements: patent US20260273028A1, “PEROXIDASE COMPOSITIONS CONTAINING IMPROVED ENHANCING AGENTS” (FLEN HEALTH PHARMA NV, priority 2022, published 2026)

What was measured:
[1] = tested on: Pseudomonas aeruginosa ATCC®9027™; assay: MIC determination, broth microdilution, GOX+LPO with potentiator candidate; type: cell-based; conditions: P. aeruginosa; guaiacol added as enhancing agent
Procedure: (§1) The minimum inhibitory concentration (MIC) is defined as the lowest concentration of an antimicrobial agent that results in a complete inhibition of microbial growth (determined via visual evaluation or absorbance measurements) after overnight incubation. This endpoint measurement is used to define the microbial susceptibility towards an antimicrobial agent. Here, the antimicrobial agent is a combination of the natural enzymes GOX+LPO.
(§2) To determine the MIC of the described combinations, a classical broth microdilution assay was used to determine the susceptibility of a series of microbes commonly detected in infected wounds, including (a) the Gram-positive bacterium Staphylococcus aureus ATCC® 6538™ (results shown below), (b) the Gram-negative bacterium Pseudomonas aeruginosa ATCC®9027™ (results shown below), (c) the yeast Candida albicans ATCC®10231™ (results shown below), and (d) the fungus Aspergillus niger ATCC®16404™ (results shown below). In brief, a […] serial dilution of the enzymatic GOX+LPO solution was prepared in a transparent, flat-bottomed 96-well test plate with final concentrations ranging from 0.005 to 0.00000977% (v/v). To each well, a fixed volume of the enzymatic substrate containing 3,3% (w/v) glucose and 0,084% (w/v) potassium iodide, as well as the microbial inoculum with an OD600 of 0.1 was added. In the event the enzyme combination was evaluated in the presence of a potentiator candidate, the latter was added together with the enzymatic substrate in a final concentration ranging from 100 to 0,00125% (v/v). For each combination evaluated, a blank (no addition of microbial inoculum) was included. Positive (inoculum only) and negative (background solution only) were included to evaluate the performance of the test and to select the enzymatic GOX+LPO concentration at which no microbial growth is detected (i.e., absorbance equal to that of the background solution only). Then, the 96-well test plate was incubated for 24 hours at 37° C. (S. aureus, P. aeruginosa and C. albicans) or 25° C. (A. niger). After incubation, the absorbance of each well was measured using a plate spectrophotometer (Spectramax ID3, Molecular Devices). For each combination evaluated, this test was repeated at least 5 times. The collected data were further analyzed in MS Excel. Mean absorbance data were visualized in a table format in which the MIC was highlighted.

[2] = tested on: Staphylococcus aureus ATCC® 6538™; assay: as above; type: cell-based; conditions: S. aureus; guaiacol added as enhancing agent
Procedure: as §1, §2

[3] = tested on: Pseudomonas aeruginosa ATCC®9027™; assay: MBC determination, broth microdilution with CFU enumeration; type: cell-based; conditions: P. aeruginosa; guaiacol added as enhancing agent
Procedure: The minimal bactericidal concentration (MBC) is defined as the lowest concentration of an antimicrobial agent that results in a complete killing of the microbial population (determined via standard CFU enumeration techniques) after overnight incubation. This endpoint measurement is used, together with the MIC (see above), to define the microbial susceptibility towards an antimicrobial agent. Here, the antimicrobial agent is a combination of the natural enzymes GOX+LPO.
To determine the MBC of the described combinations, a classical broth microdilution assay combined with standard CFU enumeration techniques was used to determine the susceptibility of a series of microbes commonly detected in infected wounds, including (a) the Gram-positive bacterium Staphylococcus aureus ATCC® 6538™ (results shown below), (b) the Gram-negative bacterium Pseudomonas aeruginosa ATCC®9027™ (results shown below), (c) the yeast Candida albicans ATCC®10231™ (results shown below), and (d) the fungus Aspergillus niger ATCC®16404™ (results shown below). In brief, the broth microdilution assay was set up as previously described (see 2.1). After incubation, the MBC was determined by investigating the presence of viable microorganisms at the MIC and following higher concentrations (MICx2, MICx4, and so on) using standard CFU enumeration techniques. For each combination evaluated, this test was repeated at least 5 times. The collected data were further analyzed in MS Excel. Mean concentration data (expressed as log CFU/ml) were visualized in a table format in which the MBC was highlighted.

[4] = tested on: S. aureus (ATCC®6538™); assay: Microbial challenge testing in alginogel with GOX+LPO; type: cell-based; conditions: for antimicrobial efficacy against S. aureus of halide alone, 0 vs 80 minute timepoint: alginogel, halide alone (without enzymes) 0.03% (v/v)
Procedure: To determine the ability of an antimicrobial agent to elicit an antimicrobial preserving efficacy in a gel environment, a microbiological challenge test can be performed. Here, the antimicrobial agent is a combination of the natural enzymes GOX+LPO. […] Microbial challenge testing was performed according to the method described in the European Pharmacopoeia current version chapter 5.1.3 ‘Efficacy of antimicrobial preservation’, but with adapted time points (0, 10, 20, 30, 40, 50, 60, 70 and 80 min instead of 0, 2, 7, 14 and 28 days). In brief, for every enhancing agent to be evaluated, a lab-scale alginogel (based on the Flaminal® formulation, but without the original enhancer guaiacol) including 0.0075% GOX+LPO (1:1) was prepared according to standard practices. Enhancing agents were added to the alginogel in a final concentration ranging from 0.01 to 0,00025% (v/w). As a reference, an alginogel including 0.0075% GOX+LPO (1:1) without the addition of any enhancing agent was included (designated as: enzymes only). As a control, an alginogel without both GOX+LPO (1:1) enzyme solution and enhancing agent (designated as: empty gel) as well as an alginogel only containing the enhancing agent only (designated as: enhancing candidate only) were included. After preparation, a homogenous sample of 10 g was transferred into a 50 ml conical tube for each alginogel to be evaluated and microorganism to be tested. For each test microorganism, including S. aureus (ATCC®6538™), P. aeruginosa (ATCC®9027™), C. albicans (ATCC®10231™) and A. niger (ATCC®16404 ™), a microbial suspension of about 10^8 CFU/ml was prepared in sterile diluent (buffered sodium chloride-peptone solution). Then, the 50 ml conical tubes containing the alginogel samples to be evaluated were inoculated with 100 μl of the designated inoculum. At the start (time point 0) and after 0, 10, 20, 30, 40, 50, 60, 70 and 80 min, the number of viable microorganisms per gram product (expressed as CFU/g) was determined by transferring a sample of 0.5 g of the product into a 15 ml conical tube containing 4.5 ml of sterile diluent and applying general dilution and plate count techniques. For each combination evaluated, this test was repeated at least 1-3 times. The collected data were further analyzed in MS Excel. Mean absolute counts (expressed as log CFU/g) were visualized in a graph.
The purpose of the hereby described experiment was to compare the efficacy of antimicrobial activity enhancement of the GOX+LPO (1:1) enzyme combination by ethanolamine and proline in a microbial challenge test using S. aureus. The test was set up as described in the section on ‘challenge testing’ in Example 2.4. The test was repeated at least 3 times.
The purpose of the hereby described experiment was to compare the efficacy of antimicrobial activity of the GOX+LPO (1:1) enzyme combination in the presence of potassium chloride/potassium bromide and potassium iodide. A microbial challenge test using S. aureus was performed. The test was set up as described in the section on ‘challenge testing’ in Example 2.4.

[5] = target: Lactoperoxidase (Bos taurus, UniProt P80025); assay: Lactoperoxidase (LPO) activity, spectrophotometric assay (ABTS); type: biochemical; conditions: concentration not given
Procedure: Lactoperoxidase is a member of the heme peroxidase family of enzymes that, together with a catalytic anion (such as I^−, derived from KI, present in the substrate), will catalyse the oxidation of H2O2, leading to hypojodite (IO^−). This hypojodite is a reactive oxygen species (ROS). To measure the enzymatic activity of LPO, a standard spectrophotometric assay is performed. In brief, H2O2 combined with 2,2′-azino-bis (3-ethylbenzothiazoline-6-sulfonzuur (ABTS) is catalysed by LPO so that the formation of a coloured compound is achieved that can in turn be measured by spectrophotometry. LPO was tested in 3 different concentrations, i.e., 50, 10 and 1 mg/ml. Each reaction mixture was tested in duplo. In the event LPO activity was evaluated in the presence of a potentiator candidate (=a molecule that might be able to augment the enzymatic activity of LPO), the latter was added in a low and high concentration ranging from 100 to 0.1 mg/ml. The blank consisted of the reaction mix in which H2O2 was absent. The absorbance was immediately measured with a plate reader (Spectramax ID3, Molecular Devices) every 12 seconds for 5 minutes at 20° C. For each combination evaluated, this test was repeated at least 2 times. Results were further analysed in MS Excel and expressed as U/g. Mean blank-corrected data±SD were plotted. Statistical significance compared to the combination without potentiator candidate (reference) was calculated using students' t-tests. Significance is achieved when the obtained p-value is lower than 0,05. Significance levels were defined as p<0.05=*; p<0.01=** and p<0.001=***.

[6] = target: GOX (Aspergillus niger, UniProt P13006); assay: Glucose oxidase (GOX) activity, spectrophotometric assay; type: biochemical; conditions: cysteine 1-0.1 mg/ml (FIG. 1)
Sequence of GOX (P13006 17-605): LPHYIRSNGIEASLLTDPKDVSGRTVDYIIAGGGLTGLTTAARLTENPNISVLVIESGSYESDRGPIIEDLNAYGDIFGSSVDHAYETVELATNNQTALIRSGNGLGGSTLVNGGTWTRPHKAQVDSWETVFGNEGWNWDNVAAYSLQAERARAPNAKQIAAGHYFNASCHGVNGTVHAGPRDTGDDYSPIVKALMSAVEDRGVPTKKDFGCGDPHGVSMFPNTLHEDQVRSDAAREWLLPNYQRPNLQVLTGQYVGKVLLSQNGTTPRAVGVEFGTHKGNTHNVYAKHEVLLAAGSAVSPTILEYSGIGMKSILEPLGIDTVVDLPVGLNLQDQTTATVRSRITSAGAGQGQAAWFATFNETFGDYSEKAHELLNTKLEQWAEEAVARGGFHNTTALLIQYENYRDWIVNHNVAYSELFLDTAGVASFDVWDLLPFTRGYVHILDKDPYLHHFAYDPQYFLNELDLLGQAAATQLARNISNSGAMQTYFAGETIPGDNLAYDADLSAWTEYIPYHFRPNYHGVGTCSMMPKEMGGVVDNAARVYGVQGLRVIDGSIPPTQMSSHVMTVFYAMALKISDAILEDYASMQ
Procedure: The natural enzyme GOX is an oxidoreductase that catalyses the oxidation of glucose to gluconic acid and hydrogen peroxide (H2O2) in the presence of water and air. To measure the enzymatic activity of GOX, a standard spectrophotometric assay is performed. In brief, a second oxidoreductase enzyme, peroxidase, and a chromogenic oxygen acceptor, o-dianisidine, are added to the former reaction mix (GOX+glucose+water+air) so that the formation of a coloured compound is achieved that can in turn be measured by spectrophotometry. GOX was tested in 4 different concentrations, i.e., 100, 50, 10 and 1 mg/ml. Each reaction mixture was tested in duplo. In the event GOX activity was evaluated in the presence of a potentiator candidate (=a molecule that might be able to augment the enzymatic activity of GOX), the latter was added in a low and high concentration ranging from 100 to 0.1 mg/ml. The blank consisted of the reaction mix in which the enzymes were absent. After mixing all reaction elements, absorbance was immediately measured with a plate reader (Spectramax ID3, Molecular Devices) every minute for 5 minutes at 35° C. For each combination evaluated, this test was repeated at least 2 times. Results were further analysed in MS Excel and expressed as U/g. Mean blank-corrected data±SD were plotted. Statistical significance compared to the combination without potentiator candidate (reference) was calculated using students' t-tests. Significance is achieved when the obtained p-value is lower than 0,05. Significance levels were defined as p<0.05=*; p<0.01=** and p<0.001=***.

In the case of `COc1ccccc1O` [guaiacol, reference compound], the “MIC: GOX+LPO enzyme solution needed to completely inhibit growth” value [1] is reported as 0.00125 % (v/v), the “MIC: GOX+LPO enzyme solution needed to completely inhibit growth” value [2] is reported as 0.0000781 % (v/v) and the “MBC: GOX+LPO enzyme solution needed” value [3] is reported as 0.00125 % (v/v).
`NCCO` [ethanolamine, reference compound] was tested, and the “exposure time to complete reduction of absolute S. aureus counts (average)” value ([4]; alginogel with GOX+LPO (1:1), enhancer 0,0005% (v/v)) was 70 min.
`CC(C)C[C@H](N)C(=O)O` [leucine, reference compound] was tested, and the “LPO activity compared to reference” value [5] was “did not result in a significant difference”.
With `[Cl-].[K+]` [KCl, potassium chloride, reference compound] the “antimicrobial efficacy against S. aureus of halide alone, 0 vs 80 minute timepoint” value (shortened to “antimicrobial efficacy … vs 80 minute timepoint”) [4] was “did not result in any difference in antimicrobial efficacy”.
`N[C@@H](CS)C(=O)O` [cysteine, reference compound] was tested, and the “GOX activity compared to reference” value [6] was “significant lower GOX activity”.
With `[I-].[K+]` [KI, potassium iodide] the “time to complete reduction of absolute S. aureus counts” value ([4]; alginogel with GOX+LPO (1:1), halide 0,03% (v/v)) was 70 min, the “time to complete reduction of absolute S. aureus counts” value ([4]; alginogel with GOX+LPO (1:1), halide 0,003% (v/v)) was 80 min and the “antimicrobial efficacy … vs 80 minute timepoint” value [4] was “did not result in any difference in antimicrobial efficacy”.
For `[Br-].[K+]` [KBr, potassium bromide, reference compound], the “antimicrobial efficacy … vs 80 minute timepoint” value [4] was “did not result in any difference in antimicrobial efficacy”.
